# According to patent US20080242716A1, “Ion Channel Modulators” (priority 2004, published 2008):
# System: calcium channel (e.g., L-type, N-type, etc.) currents
# Assay: HEK assay, whole-cell voltage clamp in transiently transfected HEK-293T/17 cells
# Format: cell-based
# Settings: whole-cell patch clamp, steady-state concentration-response
# Procedure: HEK-293T/17 cells are transiently transfected in a similar manner as described in FuGENE 6 Package Insert Version 7, April 2002, Roche Applied Science, Indianapolis, Ind. The cells are plated at 2.5×10^5 cells in 2 mL in a 6-well plate in incubator for one night and achieve a 30˜40% confluence. In a small sterile tube, add sufficient serum-free medium as diluent for FuGENE Transfection Reagent (Roche Applied Science, Indianapolis, Ind.), to a total volume of 100 μL. Add 3 μL of FuGENE 6 Reagent directly into this medium. The mixture is tapped gently to mix. 2 μg of DNA solution (0.8-2.0 μg/μL) is added to the prediluted FuGENE 6 Reagent from above. The DNA/Fugene 6 mixture is gently pipeted to mix the contents and incubated for about 15 minutes at room temperature. The complex mixture is then added to the HEK-293T/17 cells, distributing it around the well, and swirled to ensure even dispersal. The cells are returned to the incubator for 24 hrs. The transfected cells are then replated at density 2.5×10^5 in a 35 mm dish with 5 glass coverslips and grow in low serum(1%) media for 24 hrs. Coverslips with isolated cells are then transferred into chamber and calcium channel (e.g., L-type, N-type, etc.) current or other currents for counter screening are recorded from the transiently transfected HBEK-293T/17 cells. […]
compound,measurement,value
"Fc1ccc(Cc2nc(Cc3nc4ccccc4[nH]3)cn2-c2ccc(Cl)cc2)cc1 [Compound 2, 2-[1-(4-Chloro-phenyl)-2-(4-fluoro-benzyl)-1H-imidazol-4-ylmethyl]-1H-benzoimidazole]",IC50,252 nM
